Literature values, collected in patent US10166212B2, “Oral use of zinc and copper gluconates in the treatment of digital dermatitis” (DANTRACE, priority 2015, dated 2019).

Columns and labels:
[1] = administered as pills of zinc oxide; remainder excreted in feces
[2] = tested on: digital dermatitis lesions

SMILES | zinc taken up by the digestive system [1] [%] | healing rate, treatment vs. control group ([2]; by day 34, P=0.01) | overall positive effect (healing and improvement), treatment vs. control ([2]; by day 34, P=0.05) [fold] | healing rate (change to M0) ([2]; by day 34 post-treatment, 10 g salicylic acid powder in bandage vs chlortetracycline spray control) [%] | proportion of lesions getting smaller, treatment vs. control ([2]; by days 14 and 34, P<0.08) [times] | healing rates between treatment groups ([2]; days 3 and 14)
[O]=[Zn] [zinc oxide] | 20 | – | – | – | – | –
O=C(O)c1ccccc1O [salicylic acid] | – | fivefold better | 1.75 | 13.6 | 2.5 | did not differ significantly
